# Measured values taken from patent US9994551B2, “Pyridazine derivatives as RORc modulators” (Genentech, Inc., priority 2015, dated 2018).
# Target: T1, RORc ligand binding domain (Homo sapiens, UniProt P51449)
# T1 construct: host or cells: E. coli
# T1 sequence (P51449 269-508 limits assumed): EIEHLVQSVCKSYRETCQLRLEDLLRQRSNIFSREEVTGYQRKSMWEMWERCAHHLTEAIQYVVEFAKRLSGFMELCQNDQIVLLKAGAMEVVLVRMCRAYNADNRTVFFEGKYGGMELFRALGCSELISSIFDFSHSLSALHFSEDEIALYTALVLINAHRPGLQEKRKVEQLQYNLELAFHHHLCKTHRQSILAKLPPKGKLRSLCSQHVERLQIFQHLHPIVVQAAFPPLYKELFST
# Assay: In vitro RORc ligand binding assay (25-[3H]hydroxycholesterol displacement, filter binding)
row,IC50,SMILES
1,49.5 nM,"CC[C@@H](O[C@@]12CC[C@@H](c3cc(-c4c(F)cccc4F)nnc31)C2(C)C)C(=O)NCC(C)(C)O [Compound 52, (R)-2-(((5S,8R)-3-(2,6-difluorophenyl)-9,9-dimethyl-5,6,7,8-tetrahydro-5,8-methanocinnolin-8-yl)oxy)-N-(2-hydroxy-2-methylpropyl)butanamide]"
2,720 nM,"CC1(C)[C@H]2CC[C@]1([C@H]1CN(C(=O)c3ccc(=O)[nH]n3)CCO1)c1nnc(-c3c(F)cccc3F)cc12 (stereo in doubt) [Compound 123, 3-[2-[5-(2,6-difluorophenyl)-11,11-dimethyl-3,4-diazatricyclo[6.2.1.02,7]undeca-2,4,6-trien-1-yl]morpholine-4-carbonyl]-1H-pyridazin-6-one]"
3,344 nM,"CC1(C)[C@H]2CC[C@]1([C@H]1CCCN(S(C)(=O)=O)C1)c1nnc(-c3c(F)cccc3F)cc12 [Compound 95, (5R,8R)-3-(2,6-difluorophenyl)-9,9-dimethyl-8-((R)-1-(methylsulfonyl)piperidin-3-yl)-5,6,7,8-tetrahydro-5,8-methanocinnoline]"
4,185 nM,"CC1(C)[C@H]2CC[C@]1(Oc1cncnc1)c1nnc(-c3c(F)cccc3F)cc12 [Compound 28, (5S,8R)-3-(2,6-difluorophenyl)-9,9-dimethyl-8-(pyrimidin-5-yloxy)-5,6,7,8-tetrahydro-5,8-methanocinnoline]"
5,4 nM,"Cc1coc(N2CCO[C@H]([C@@]34CC[C@@H](c5cc(-c6c(F)cccc6F)nnc53)C4(C)C)C2)n1 [Compound 134, 2-[5-(2,6-difluorophenyl)-11,11-dimethyl-3,4-diazatricyclo[6.2.1.02,7]undeca-2,4,6-trien-1-yl]-4-(4-methyloxazol-2-yl)morpholine]"
6,202 nM,"CC1(C)[C@H]2CC[C@]1(Oc1cc[nH]c(=O)c1)c1nnc(-c3c(F)cccc3F)cc12 [Compound 34, 4-(((5S,8R)-3-(2,6-difluorophenyl)-9,9-dimethyl-5,6,7,8-tetrahydro-5,8-methanocinnolin-8-yl)oxy)pyridin-2(1H)-one]"
7,95.2 nM,"CC[C@@H](O[C@@]12CC[C@@H](c3cc(-c4c(F)cccc4F)nnc31)C2(C)C)C(=O)NCc1n[nH]c(=O)[nH]1 [Compound 56, (R)-2-(((5S,8R)-3-(2,6-difluorophenyl)-9,9-dimethyl-5,6,7,8-tetrahydro-5,8-methanocinnolin-8-yl)oxy)-N-((5-oxo-4,5-dihydro-1H-1,2,4-triazol-3-yl)methyl)butanamide]"
8,385 nM,"CNC(=O)c1cncc(O[C@@]23CC[C@@H](c4cc(-c5c(F)cccc5F)nnc42)C3(C)C)n1 [Compound 29, 6-(((5S,8R)-3-(2,6-difluorophenyl)-9,9-dimethyl-5,6,7,8-tetrahydro-5,8-methanocinnolin-8-yl)oxy)-N-methylpyrazine-2-carboxamide]"
9,4400 nM,"CC1(C)[C@H]2CC[C@]1([C@@H]1CCCNC1=O)c1nnc(-c3c(F)cccc3F)cc12 [Compound 139, 3-[5-(2,6-difluorophenyl)-11,11-dimethyl-3,4-diazatricyclo[6.2.1.02,7]undeca-2,4,6-trien-1-yl]piperidin-2-one]"
10,98.5 nM,"CN(C)C(=O)N1CCC[C@H]([C@@]23CC[C@@H](c4cc(-c5c(F)cccc5F)nnc42)C3(C)C)C1 [Compound 97, (R)-3-((5R,8R)-3-(2,6-difluorophenyl)-9,9-dimethyl-5,6,7,8-tetrahydro-5,8-methanocinnolin-8-yl)-N,N-dimethylpiperidine-1-carboxamide]"
11,16 nM,"Cc1n[nH]c(N2CCO[C@@H]([C@@]34CC[C@@H](c5cc(-c6c(F)cccc6F)nnc53)C4(C)C)C2)n1 (single isomer, unassigned) [Compound 147, 2-[5-(2,6-difluorophenyl)-11,11-dimethyl-3,4-diazatricyclo[6.2.1.02,7]undeca-2,4,6-trien-1-yl]-4-(3-methyl-1H-1,2,4-triazol-5-yl)morpholine]"
12,317 nM,"CC1(C)[C@H]2CC[C@]1([C@@H]1CN(Cc3ccccc3)CCO1)c1nnc(-c3c(F)cccc3F)cc12 [Compound 60, (R)-4-benzyl-2-((5R,8R)-3-(2,6-difluorophenyl)-9,9-dimethyl-5,6,7,8-tetrahydro-5,8-methanocinnolin-8-yl)morpholine]"
13,6.1 nM,"CC1(C)[C@H]2CC[C@]1([C@H]1CCCN(C(=O)NC3COC3)C1)c1nnc(-c3c(F)cccc3F)cc12 [Compound 157, 3-[5-(2,6-difluorophenyl)-11,11-dimethyl-3,4-diazatricyclo[6.2.1.02,7]undeca-2,4,6-trien-1-yl]-N-(oxetan-3-yl)piperidine-1-carboxamide]"
14,430 nM,"CCOC(=O)c1coc(N2CCO[C@H]([C@@]34CC[C@@H](c5cc(-c6c(F)cccc6F)nnc53)C4(C)C)C2)n1 [Compound 126, ethyl 2-[2[5-(2,6-difluorophenyl)-11,11-dimethyl-3,4-diazatricyclo[6.2.1.02,7]undeca-2,4,6-trien-1-yl]morpholin-4-yl]oxazole-4-carboxylate]"
15,300 nM,"C[C@H](O[C@@]12CC[C@@H](c3cc(-c4c(F)cccc4F)nnc31)C2(C)C)C(N)=O [Compound 43, (S)-2-(((5S,8R)-3-(2,6-difluorophenyl)-9,9-dimethyl-5,6,7,8-tetrahydro-5,8-methanocinnolin-8-yl)oxy)propanamide]"
16,308 nM,"CC(=O)N1CCO[C@H]([C@@]23CC[C@@H](c4cc(-c5c(F)cccc5F)nnc42)C3(C)C)C1 [Compound 64, 1-((R)-2-((5R,8R)-3-(2,6-difluorophenyl)-9,9-dimethyl-5,6,7,8-tetrahydro-5,8-methanocinnolin-8-yl)morpholino)ethanone]"
17,76.3 nM,"CC1(C)[C@H]2CC[C@]1([C@H]1CN(C(=O)c3cnco3)CCO1)c1nnc(-c3c(F)cccc3F)cc12 [Compound 94, ((S)-2-((5R,8R)-3-(2,6-difluorophenyl)-9,9-dimethyl-5,6,7,8-tetrahydro-5,8-methanocinnolin-8-yl)morpholino)(oxazol-5-yl)methanone]"
18,66.2 nM,"CC1(C)[C@H]2CC[C@]1([C@H]1CN(C(N)=O)CCO1)c1nnc(-c3c(F)cccc3F)cc12 [Compound 81, (S)-2-((5R,8R)-3-(2,6-difluorophenyl)-9,9-dimethyl-5,6,7,8-tetrahydro-5,8-methanocinnolin-8-yl)morpholine-4-carboxamide]"
19,74.5 nM,"CC1(C)[C@H]2CC[C@]1([C@@H]1CN(C(=O)c3cnco3)CCO1)c1nnc(-c3c(F)cccc3F)cc12 [Compound 90, ((R)-2-((5R,8R)-3-(2,6-difluorophenyl)-9,9-dimethyl-5,6,7,8-tetrahydro-5,8-methanocinnolin-8-yl)morpholino)(oxazol-5-yl)methanone]"
20,12 nM,"CNS(=O)(=O)N1CCC[C@H]([C@@]23CC[C@@H](c4cc(-c5c(F)cccc5F)nnc42)C3(C)C)C1 [Compound 138, 3-[5-(2,6-difluorophenyl)-11,11-dimethyl-3,4-diazatricyclo[6.2.1.02,7]undeca-2,4,6-trien-1-yl]-N-methyl-piperidine-1-sulfonamide]"
21,14.5 nM,CC1(C)[C@H]2CC[C@]1(O[C@@H](C(N)=O)C1CC1)c1nnc(-c3c(F)cccc3F)cc12 [Compound 44]
22,83 nM,"Cc1n[nH]c(C(=O)N2CCC[C@H]([C@@]34CC[C@@H](c5cc(-c6c(F)cccc6F)nnc53)C4(C)C)C2)n1 [Compound 129, [3-[5-(2,6-difluorophenyl)-11,11-dimethyl-3,4-diazatricyclo[6.2.1.02,7]undeca-2,4,6-trien-1-yl]-1-piperidyl]-(3-methyl-1H-1,2,4-triazol-5-yl)methanone]"
23,9.3 nM,"CCO[C@@]12CC[C@@H](c3cc(-c4c(F)cccc4F)nnc31)C2(C)C [Compound 7, (5S,8R)-3-(2,6-difluorophenyl)-8-ethoxy-9,9-dimethyl-5,6,7,8-tetrahydro-5,8-methanocinnoline]"
24,74.8 nM,"CC1(C)[C@H]2CC[C@]1(OC1(CC(N)=O)CC1)c1nnc(-c3c(F)cccc3F)cc12 [Compound 46, 2-(1-(((5S,8R)-3-(2,6-difluorophenyl)-9,9-dimethyl-5,6,7,8-tetrahydro-5,8-methanocinnolin-8-yl)oxy)cyclopropyl)acetamide]"
25,175 nM,"CC1(C)[C@H]2CC[C@]1(c1cncc3nccn13)c1nnc(-c3c(F)cccc3F)cc12 [Compound 109, (5R,8S)-3-(2,6-difluorophenyl)-8-(imidazo[1,2-a]pyrazin-5-yl)-9,9-dimethyl-5,6,7,8-tetrahydro-5,8-methanocinnoline]"
26,96 nM,"CCOC(=O)c1cn2c([C@@]34CC[C@@H](c5cc(-c6c(F)cccc6F)nnc53)C4(C)C)cccc2n1 [Compound 108, ethyl 5-((5R,8S)-3-(2,6-difluorophenyl)-9,9-dimethyl-5,6,7,8-tetrahydro-5,8-methanocinnolin-8-yl)imidazo[1,2-a]pyridine-2-carboxylate]"
27,5.6 nM,"Cc1nc(N2CCO[C@H]([C@@]34CC[C@@H](c5cc(-c6c(F)cccc6F)nnc53)C4(C)C)C2)n(Cc2ccccc2)n1 [Compound 143, 4-(2-benzyl-5-methyl-1,2,4-triazol-3-yl)-2-[5-(2,6-difluorophenyl)-11,11-dimethyl-3,4-diazatricyclo[6.2.1.02,7]undeca-2,4,6-trien-1-yl]morpholine]"
28,9.1 nM,"CC(=O)N1CCN(C)C[C@@H]1[C@@]12CC[C@@H](c3cc(-c4c(F)cccc4F)nnc31)C2(C)C [Compound 182, 1-[2-[5-(2,6-difluorophenyl)-11,11-dimethyl-3,4-diazatricyclo[6.2.1.02,7]undeca-2,4,6-trien-1-yl]-4-methyl-piperazin-1-yl]ethanone]"
